Measurements from US20200236933A1, “USE OF A NON-IONIC SURFACTANT WHICH IS A POLYOL DERIVATIVE AS A PLANT GROWTH STIMULATING AGENT OR AS AN ADJUVANT” (priority 2017, published 2020).

Legend:
maize seeds = experiment: Germination of maize seeds after immersion treatment (Example 2); assay type: in vivo; conditions: maize seeds immersed 1 h in 0.75% solution
Procedure: The seeds are next dried in a heating tunnel at 45° C. for one hour. Four batch repetitions of 16 seeds are deposited on Petri dishes containing a medium composed of 2% Agar Agar and 98% water.
(§1) The Petri dishes are kept at ambient temperature and in darkness. Each day the number of seeds that have germinated (having a radicle) is counted.

parsley leaves = experiment: Calcium content of the leaves; assay type: in vivo; conditions: 3% solution, watering every three days and spraying twice daily, seven days
Description: After seven days of treatment, the leaves are harvested and analyzed to determine their calcium content.

Helminthosphaeria = experiment: Reduction of phytosanitary products on maize; assay type: in vivo, maize (P7043, Pioneer); conditions: 25% of recommended dose (0.25 L/ha Amistar + 0.6 L/ha Cicero) plus 3 L/ha sucrose stearate; 12-14 leaf stage
Procedure: Assays in a climate-controlled chamber were carried out on maize ([…], Pioneer). The maize was sowed in containers of 1 meter by 1 meter. […] […]® comprises the active ingredient: azoxystrobin (belonging to the strobilurin family), and Cicero® comprises two active ingredients: chlorothalonil (belonging to the chloronitrile family), and flutriafol (belonging to the triazole family). […] The containers were then taken out of the climate-controlled chamber and disposed near a field having more than 50% of maize plants diseased with Helminthosphaeria. After 1 day, the containers were placed back in the climate-controlled chamber under controlled conditions.

[1] = test system: flat-leaf parsley variety NOVAS; experiment: Vertical anchoring of the root, assays in fields; assay type: in vivo; conditions: seeds immersed 1 h in 2.5% solution; 12 weeks after sowing
Procedure: In order to test the effect of the invention in conditions of crops in the field, the flat-leaf parsley variety NOVAS is used.
The seeds are next dried in a heating tunnel at 45° C. for 1 h.
The seeds are mechanically sown (seeder) on strips of four rows each one beside the other to limit as much as possible the variations in soil quality, insulation and temperature.
12 weeks after sowing, 25 parsley plants were harvested in order to observe root morphology.

[2] = Drift limitation: size of drops after spraying; assay type: physicochemical; conditions: 2.5% with 5% titanium dioxide; 2, 4 and 8 bars
Description: Increasing pressures (2, 4 and 8 bars) were used in order to test different conditions (FIG. 21: a, b and c respectively). The greater the pressure the more numerous and fine were the drops.

[3] = test system: detached leaves of Buddleja davidii; experiment: Stickiness of a solution on the leaf (washing off); conditions: 2.5% with 3% titanium dioxide; washed with 14 g water
Description: A solution is applied by spraying on detached leaves of Buddleja davidii disposed flat on a support.
The leaves were next left at ambient temperature until the sprayed solutions had completely evaporated.
14 grams of water are next sprayed onto the leaves held vertical to simulate rain. The titanium residues on the leaf are next observed.

Aspergillus niger = experiment: Fungicide effect by antibiogram type method; assay type: cell-based
Description: In order to evaluate any impact of the sugar esters used according to the invention on microorganisms, the fungicide effect was searched for by an antibiogram type method. The method consists of: • spreading a solution contaminated with the mold Aspergillus niger on the surface of a Petri dish containing glucose gel growth medium with chloramphenicol. • arrange 4 sterile antibiogram disks of 6 mm diameter per Petri dish. • inoculate with 3 drops (0.071 g) of solution to test or control solution per disk. The dishes are next placed in the incubator at 25° C. for 5 days. Measurement of the inhibitory diameter is carried out every day.

parsley seeds = experiment: Germination of parsley seeds after immersion treatment; assay type: in vivo; conditions: parsley seeds immersed 1 h in 0.75% solution
Procedure: The seeds are next dried in a heating tunnel at 45° C. for one hour. Two batch repetitions of 48 seeds are deposited on Petri dishes containing a medium composed of 2% Agar Agar and 98% water.
as §1

Septoria leaf spot = experiment: Reduction of phytosanitary products on wheat; assay type: in vivo, soft winter wheat (GARCIA variety); conditions: 25% of recommended dose (0.15 L/ha Priaxor + 0.15 L/ha Reimer Pro) plus 3 L/ha sucrose stearate; start of coming into ear
Procedure: Assays in a climate-controlled chamber were carried out on soft winter wheat (GARCIA variety, Arvalis). The wheat was sowed in containers of 1 meter by 1 meter. […] Priaxor® comprises two active ingredients: fluxapyroxad (belonging to the SDHI family) and pyraclostrobin (belonging to the strobilurin family) and Reimer® Pro comprises the active ingredient metconazole (belonging to the triazole family).
The containers were then taken out of the climate-controlled chamber and disposed near a field having more than 50% of wheat plants diseased with Septoria leaf spot. After 1 day, the containers were placed back in the climate-controlled chamber under controlled conditions.

rape leaf = experiment: Penetration of a colored aqueous solution through the cuticle; conditions: 2.5% solution, 2 h on rape leaf then wiped
Procedure: Rape, a plant known for having a thick cuticle, was chosen in order to test the effectiveness of the invention as a penetrating agent.
A colorant in aqueous solution was deposited on a rape leaf, then left for 2 h and then wiped.

[4] = test system: detached leaves of Buddleja davidii; experiment: Persistence of the mixture at the foliar surface; conditions: 1% with 0.1% colorant; rinses with water
Procedure: The effect of the invention on the persistence of the mixture was evaluated after spraying a solution colored blue on detached leaves of Buddleja davidii.
After spraying, the leaves are left at ambient temperature until the sprayed solution has evaporated.
Next, several operations of rinsing the leaves with water are carried out. The rinse water is collected after each rinse and photographs are taken to observe and compare the coloration of the rinse waters. An absorbance measurement at 630 nm is also carried out by spectrophotometry.

soybeans = experiment: Germination of soybeans after immersion treatment; assay type: in vivo; conditions: soybeans immersed 1 h in 0.75% solution
Procedure: The beans are next dried in a heating tunnel at 45° C. for one hour. Four batch repetitions of 15 beans are deposited on Petri dishes containing a medium composed of 2% Agar Agar and 98% water.
The Petri dishes are kept at ambient temperature and in darkness. Each day the number of germinated beans (having a radicle) is counted.

sucrose stearate
increase of the germination kinetics on average (maize seeds): 30% | germinated seeds, treated batch compared with the control batch (maize seeds; after 2 days): 10 times | reduction in the level of calcium in the leaves (parsley leaves): 17% | plants presenting Helminthosphaeria spots (Helminthosphaeria): less than 10% | root morphology [1]: root elongation, coupled with vertical anchorage of the roots | size of the drops after spraying [2]: enables an increase the size of the drops | titanium dioxide residue on the leaf after washing [3]: still clearly visible | Inhibitory diameter (Aspergillus niger; 0.1% solution, D1): 0 mm | Inhibitory diameter (Aspergillus niger; 0.1% solution, D2): 0 mm | Inhibitory diameter (Aspergillus niger; 0.1% solution, D3): 0 mm | Inhibitory diameter (Aspergillus niger; 0.1% solution, D4): 0 mm | Inhibitory diameter (Aspergillus niger; 0.1% solution, D5): 0 mm | Inhibitory diameter (Aspergillus niger; 1% solution, D1): 0 mm | Inhibitory diameter (Aspergillus niger; 1% solution, D2): 0 mm | Inhibitory diameter (Aspergillus niger; 1% solution, D3): 0 mm | Inhibitory diameter (Aspergillus niger; 1% solution, D4): 0 mm | Inhibitory diameter (Aspergillus niger; 1% solution, D5): 0 mm | Inhibitory diameter (Aspergillus niger; 3% solution, D1): 0 mm | Inhibitory diameter (Aspergillus niger; 3% solution, D2): 0 mm | Inhibitory diameter (Aspergillus niger; 3% solution, D3): 0 mm | Inhibitory diameter (Aspergillus niger; 3% solution, D4): 0 mm | Inhibitory diameter (Aspergillus niger; 3% solution, D5): 0 mm | Inhibitory diameter (Aspergillus niger; 10% solution, D1): 0 mm | Inhibitory diameter (Aspergillus niger; 10% solution, D2): 0 mm | Inhibitory diameter (Aspergillus niger; 10% solution, D3): 0 mm | Inhibitory diameter (Aspergillus niger; 10% solution, D4): 0 mm | Inhibitory diameter (Aspergillus niger; 10% solution, D5): 0 mm | fungicide effect (Aspergillus niger; whatever the concentrations tested (0.1-10%)): no fungicide effect | increase of the germination kinetics on average (parsley seeds): 10% | germinated seeds, treated batch compared with the control batch (parsley seeds; between 4 days and 6 days): 2 times | plants diseased with Septoria leaf spot (Septoria leaf spot): 20% | penetration of the colorant through the cuticle (rape leaf): enables the colorant to color the leaf and thus to penetrate through the cuticle | persistence of the mixture on rinsing [4]: still present even after the 4th rinse | increase of the germination kinetics on average (soybeans): 25% | germinated seeds, treated batch compared with the control batch (soybeans; after 1 day): 4 times
